In patent US20040268437A1, “Method for biosynthesizing the serotonin derivatives in plants” (CHONNAM NATIONAL UNIVERSITY, priority 2003, published 2004):
“Also recorded” adds a separate entry of the source.

Legend:
hot pepper THT enzyme = experiment: In vitro enzyme reaction of purified hot pepper THT with serotonin, product by HPLC; format: biochemical, hot pepper (Capsicum annuum)
Procedure: In order to confirm whether hot pepper THT enzyme could use serotonin as an amine substrate, hot pepper THT protein, in which 6 histidines were attached on carboxy-terminal, was purified by affinity chromatography (Back et al., Plant Cell Physiol. 42, 475-481, 2001) and used for the experiment. Particularly, 1 μg of the purified hot pepper THT enzyme, 1 mM of feruloyl-CoA (Sigma-Aldrich, Korea) and 10 mM of serotonin (Sigma-Aldrich, Korea) were mixed together, followed by an enzyme reaction at 30° C. for 10 minutes. Upon completing the reaction, the reaction product was analyzed by HPLC.

[1] = test system: Hot pepper (Variety: Pungcheon); experiment: Serotonin sprayed on hot pepper sarcocarps; serotonin derivative content by HPLC; format: in vivo
Procedure: Hot pepper (Variety: Pungcheon) was treated with serotonin to investigate biosynthesis of serotonin derivatives.
Serotonin solution (prepared by dissolving serotonin in water to make 1 mM concentration) was sprayed on sarcocarps of hot pepper at the rate of 10,000 L/ha. 72 hours after spraying, sarcocarps were taken to investigate the content of serotonin derivatives, for which the same method in the Example 1 was used. Sarcocarps of hot pepper not treated with serotonin were used as a control.

[2] = test system: transgenic rice plants (T14) over-expressing THT; experiment: Soil treatment of transgenic rice T14 with inducers; serotonin derivative content in seeds; format: in vivo
Procedure: Among T2 generations of transgenic rice plants, T14 was transplanted in the soil, to which inducers for serotonin derivative biosynthesis were treated. After cultivation, the contents of serotonin derivatives in seeds of the transgenic rice plants were investigated.
As inducers for serotonin derivative biosynthesis, tyramine, tryptamine, cinnamic acid, coumaric acid, caffeic acid and ferulic acid were used. Precisely, the inducers for serotonin derivative biosynthesis were dissolved in water, making each concentration 100 μM. Then, the solutions were added at the rate of 300,000 L/ha, to the soil where rice plants (about 40 days after heading) were growing. The plants were cultivated for 20 more days.
The seeds of the plants cultivated above were collected, and the content of serotonin derivatives in them was investigated with the same method as used in the Example <1-1>, which was compared with that in seeds of wild type control rice plants.

[3] = test system: wild type control rice plants; experiment: Wild-type control rice grown in medium with tyramine; content in leaves and stems; format: in vivo; conditions: Wild-type control (W); medium with 50 μM tyramine, 2 weeks
Procedure: (§1) It was investigated whether serotonin derivatives was biosynthesized in transgenic rice plants over-expressing THT when cultivated in a medium supplemented with serotonin inducers, tyramine or coumaric acid. T2 generations of the transgenic rice seeds were sown on MS medium (Duchefa Biochemie, Netherlands) supplemented with 50 μM of tyramine or coumaric acid, substrates of hot pepper THT enzyme, which were then further cultured in a sterilized condition with 12 hour light and 12 hour dark cycle. 2 weeks later, hydroxycinnamoyl amines were extracted from leaves of T2 generations of transgenic rice plants and wild type control rice plants, respectively, according to the same procedure as used in the above Example <1-1>, then, HPLC was performed for analysis.

potato THT = conditions: coumaroyl-CoA used as a substrate instead of feruloyl-CoA; cited from earlier work
[4] = test system: recombinant hot pepper THT; conditions: amine substrates; cited from earlier work
[5] = test system: transgenic rice plants over-expressing THT; experiment: Transgenic rice grown in medium with tyramine or coumaric acid; content in leaves and stems; format: in vivo; conditions: for Coumaroyl serotonin / Feruloyl serotonin / Total content of serotonin derivatives: medium with 50 μM tyramine, 2 weeks
transgenic control rice = experiment: Transgenic control rice (pGA1611 vector without THT gene) grown in medium with tyramine; content in leaves and stems; format: in vivo; conditions: Transgenic control (TC); medium with 50 μM tyramine, 2 weeks
Procedure: In the meantime, transgenic control rice was prepared by transfecting rice plant with pGA1611 vector without hot pepper THT gene, and other preparation procedures for a control were the same as for an experimental group.
as §1

[6] = test system: Hot pepper (Variety: Pungcheon); experiment: Soil treatment of hot pepper with inducers; serotonin derivative content in sarcocarps by HPLC; format: in vivo
Procedure: Hot pepper (Variety: Pungcheon) was treated with inducers for serotonin derivative biosynthesis, followed by an examination of biosynthesis of serotonin derivatives.
(§2) Particularly, inducers for serotonin derivative biosynthesis were prepared by dissolving tyramine, tryptamine, cinnamic acid, coumaric acid, caffeic acid and ferulic acid in water respectively to make each concentration 100 μM. And then the soil where rice plants (about 40 days after heading) had been growing was treated once with each inducer for serotonin derivative biosynthesis at the rate of 300,000 L/ha, followed by further cultivation for 20 days.
The ripe sarcocarps of hot peppers were obtained to investigate the content of serotonin derivatives by the same method as used in the above Example <1-1>. Control group hot pepper was cultivated under the same condition as the experimental group hot pepper except the treatment with inducers for serotonin derivative biosynthesis.

[7] = test system: Rice plants (Variety: Nakdong); experiment: Soil treatment of rice with inducers; serotonin derivative content in seeds by HPLC; format: in vivo
Procedure: Rice plants (Variety: Nakdong) having been cultivated in the rice field were treated with inducers for serotonin derivative biosynthesis and then biosynthesis of the serotonin derivatives was investigated.
as §2, with “Inducers for serotonin” for “Particularly, inducers for serotonin”, “ferulic acid (Sigma-Aldrich, Korea) in water” for “ferulic acid in water”
As a control group, rice plant which had been cultivated under the same conditions except the treatment with inducers for serotonin derivative biosynthesis was used.
After harvesting rice, seeds of the rice were peeled to obtain brown rice. N-(hydroxycinnamoyl)-amines were extracted from 1 g of the brown rice by known method (Ishihara et al., Biosci. Biotechnol. Biochem. 64, 1025-1031, 2000), and then, HPLC was performed.
Coumaroylserotonin and feruloylserotonin included in the extract of seeds of rice, treated with inducers for serotonin derivative biosynthesis, were quantified by HPLC using a standard substance synthesized by a well-known method (Villegas & Brodelius, Physiol. Plant. 78, 414-420, 1990).

[8] = sarcocarps of hot pepper, 1 mM serotonin sprayed, 10,000 L/ha, 72 hours
[9] = seeds of transgenic rice T14, inducer 100 μM to soil, 300,000 L/ha, 20 days
[10] = Mean of transgenic rice lines T9-T17
[11] = inducer 100 μM to soil, 300,000 L/ha, 20 days

Compound: NCCc1c[nH]c2ccc(O)cc12 [Serotonin, serotonin]
- Serotonin used as amine substrate, product feruloylserotonin (hot pepper THT enzyme; 1 μg THT, 1 mM feruloyl-CoA, 10 mM serotonin, 30° C., 10 minutes): uses serotonin as an amine substrate; also recorded: biosynthesis of feruloylserotonin was confirmed
- Serotonin used as amine substrate, product coumaroylserotonin (hot pepper THT enzyme; coumaroyl-CoA and serotonin as substrates (not shown)): synthesized coumaroylserotonin; also recorded: biosynthesis of coumaroylserotonin by hot pepper THT enzyme was also confirmed
- Serotonin derivatives detected ([1]; sarcocarps of hot pepper treated with serotonin, in words): a large amount; also recorded: detected a lot
- Content of serotonin derivatives: Coumaroyl Serotonin [1, 8]: 1538 ng/1 g sarcocarps
- Content of serotonin derivatives: Feruloyl serotonin [1, 8]: 1028 ng/1 g sarcocarps
- Content of serotonin derivatives: Total content [1, 8]: 2566 ng/1 g sarcocarps

Compound: NCCc1ccc(O)cc1 [Tyramine, tyramine]
- Content of serotonin derivative: Coumaroyl serotonin [2, 9]: 314 ng/g seeds
- Content of serotonin derivative: Feruloyl serotonin [2, 9]: 684 ng/g seeds
- Content of serotonin derivative: Total content [2, 9]: 998 ng/g seeds
- Rank of inducers by content of serotonin derivatives ([2]; seeds of transgenic rice plants, in words): the highest
- Coumaroyl serotonin [3]: 0 μg/g leaves and stems
- Feruloyl serotonin [3]: 1 μg/g leaves and stems
- Total content of serotonin derivatives [3]: 1 μg/g leaves and stems
- Increase of substrate specificity to tyramine (potato THT): more than 10 times
- Maximum reaction velocity (Vmax) relative to octopamine [4]: 1.5 fold
- Coumaroyl serotonin [5, 10]: 78 μg/g leaves and stems
- Feruloyl serotonin [5, 10]: 96 μg/g leaves and stems
- Total content of serotonin derivatives [5, 10]: 174 μg/g leaves and stems
- Coumaroyl serotonin ([5]; Transgenic rice T9): 24 μg/g leaves and stems
- Feruloyl serotonin ([5]; Transgenic rice T9): 24 μg/g leaves and stems
- Total content of serotonin derivatives ([5]; Transgenic rice T9): 48 μg/g leaves and stems
- Coumaroyl serotonin ([5]; Transgenic rice T10): 86 μg/g leaves and stems
- Feruloyl serotonin ([5]; Transgenic rice T10): 114 μg/g leaves and stems
- Total content of serotonin derivatives ([5]; Transgenic rice T10): 200 μg/g leaves and stems
- Coumaroyl serotonin ([5]; Transgenic rice T13): 224 μg/g leaves and stems
- Feruloyl serotonin ([5]; Transgenic rice T13): 200 μg/g leaves and stems
- Total content of serotonin derivatives ([5]; Transgenic rice T13): 424 μg/g leaves and stems
- Coumaroyl serotonin ([5]; Transgenic rice T14): 46 μg/g leaves and stems
- Feruloyl serotonin ([5]; Transgenic rice T14): 78 μg/g leaves and stems
- Total content of serotonin derivatives ([5]; Transgenic rice T14): 124 μg/g leaves and stems
- Coumaroyl serotonin ([5]; Transgenic rice T16): 50 μg/g leaves and stems
- Feruloyl serotonin ([5]; Transgenic rice T16): 70 μg/g leaves and stems
- Total content of serotonin derivatives ([5]; Transgenic rice T16): 120 μg/g leaves and stems
- Coumaroyl serotonin ([5]; Transgenic rice T17): 36 μg/g leaves and stems
- Feruloyl serotonin ([5]; Transgenic rice T17): 92 μg/g leaves and stems
- Total content of serotonin derivatives ([5]; Transgenic rice T17): 128 μg/g leaves and stems
- Coumaroyltyramine and feruloyltyramine in the extract ([5]; transgenic rice in medium with 50 μM tyramine or coumaric acid, HPLC): neither coumaroyltyramine nor feruloyltyramine
- Coumaroyl serotonin (transgenic control rice): 0 μg/g leaves and stems
- Feruloyl serotonin (transgenic control rice): 1 μg/g leaves and stems
- Total content of serotonin derivatives (transgenic control rice): 1 μg/g leaves and stems
- Rank of inducers by serotonin derivatives produced ([6]; in words): third most
- Content of serotonin derivatives: Coumaroyl Serotonin [6, 11]: 150 ng/1 g sarcocarps
- Content of serotonin derivatives: Feruloyl serotonin [6, 11]: 210 ng/1 g sarcocarps
- Content of serotonin derivatives: Total content [6, 11]: 360 ng/1 g sarcocarps
- Rank of inducers by serotonin derivatives produced ([7]; in words): second most
- Content of serotonin derivatives: Coumaroyl Serotonin [7, 11]: 19 ng/1 g seed
- Content of serotonin derivatives: Feruloyl serotonin [7, 11]: 54 ng/1 g seed
- Content of serotonin derivatives: Total content [7, 11]: 73 ng/1 g seed
